# Like-named read-outs stand apart in the source and are kept apart here.
# What was measured:
# CDK11A/Cyclin L2 = target: T1, CDK11A/Cyclin L2 (Homo sapiens, UniProt Q9UQ88); assay: NanoBRET live-cell target engagement, CDK11A-NanoLuc/Cyclin L2 in HEK-293; assay type: binding; conditions: CDK11a/L2; for inhibition at 10 µM: read-out: Inhibition at 10µM (%)
# T1 sequence (Q9UQ88 1-783): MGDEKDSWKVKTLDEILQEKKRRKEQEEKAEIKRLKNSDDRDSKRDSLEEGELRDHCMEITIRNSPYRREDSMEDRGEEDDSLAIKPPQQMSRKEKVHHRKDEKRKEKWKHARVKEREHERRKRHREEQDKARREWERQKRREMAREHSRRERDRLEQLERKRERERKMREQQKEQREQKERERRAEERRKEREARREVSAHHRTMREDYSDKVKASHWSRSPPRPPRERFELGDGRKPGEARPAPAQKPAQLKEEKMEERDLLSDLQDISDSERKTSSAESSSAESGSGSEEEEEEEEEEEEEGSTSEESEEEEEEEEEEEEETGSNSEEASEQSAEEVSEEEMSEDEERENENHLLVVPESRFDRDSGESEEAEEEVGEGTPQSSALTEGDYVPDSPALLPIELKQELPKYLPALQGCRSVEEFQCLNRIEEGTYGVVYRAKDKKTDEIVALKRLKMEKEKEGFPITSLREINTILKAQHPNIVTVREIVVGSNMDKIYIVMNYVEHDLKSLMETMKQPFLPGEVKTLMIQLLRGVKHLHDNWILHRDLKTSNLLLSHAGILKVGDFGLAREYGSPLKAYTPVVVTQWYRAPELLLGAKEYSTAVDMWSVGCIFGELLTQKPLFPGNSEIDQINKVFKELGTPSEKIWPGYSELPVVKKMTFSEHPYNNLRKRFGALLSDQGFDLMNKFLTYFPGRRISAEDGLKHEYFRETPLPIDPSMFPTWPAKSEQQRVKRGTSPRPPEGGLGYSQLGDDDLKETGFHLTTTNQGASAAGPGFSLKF
# CDK13/Cyclin K = CDK13/Cyclin K (Homo sapiens, UniProt Q14004); assay: NanoBRET live-cell target engagement, CDK13-NanoLuc/Cyclin K in HEK-293; assay type: binding; conditions: CDK13/K, 10µM
# CDK18/Cyclin Y = CDK18/Cyclin Y (Homo sapiens, UniProt Q07002); assay: NanoBRET live-cell target engagement, CDK18-NanoLuc/Cyclin Y in HEK-293; assay type: binding; conditions: CDK18/Y, 10µM
# CDK20/Cyclin H = CDK20/Cyclin H (Homo sapiens, UniProt Q8IZL9); assay: NanoBRET live-cell target engagement, NanoLuc-CDK20/Cyclin H in HEK-293; assay type: binding; conditions: for inhibition at 10 µM: read-out: Inhibition at 10µM (%), CDK20/H
# CDK16/Cyclin Y = CDK16/Cyclin Y (Homo sapiens, UniProt Q00536); assay: NanoBRET live-cell target engagement, CDK16-NanoLuc/Cyclin Y in HEK-293; assay type: binding; conditions: CDK16/Y; 10µM
# CDK12/Cyclin K = CDK12/Cyclin K (Homo sapiens, UniProt Q9NYV4); assay: NanoBRET live-cell target engagement, CDK12-NanoLuc/Cyclin K in HEK-293; assay type: binding; conditions: CDK12/K, 10µM
# CDK8/Cyclin C = CDK8/Cyclin C (Homo sapiens, UniProt P49336); assay: NanoBRET live-cell target engagement, NanoLuc-CDK8/Cyclin C in HEK-293; assay type: binding; conditions: CDK8/C; for inhibition at 10 µM: read-out: Inhibition at 10µM (%)
# all 21 human CDKs = assay: Live-cell selectivity profile across all 21 CDK/cyclin complexes in HEK-293; assay type: binding; conditions: live cells
# CDK4/Cyclin D1 = CDK4/Cyclin D1 (Homo sapiens, UniProt P11802); assay: NanoBRET live-cell target engagement, NanoLuc-CDK4/Cyclin D1 in HEK-293; assay type: binding; conditions: CDK4/D1, 10µM
# Sequence of CDK4/Cyclin D1 (P11802 whole entry): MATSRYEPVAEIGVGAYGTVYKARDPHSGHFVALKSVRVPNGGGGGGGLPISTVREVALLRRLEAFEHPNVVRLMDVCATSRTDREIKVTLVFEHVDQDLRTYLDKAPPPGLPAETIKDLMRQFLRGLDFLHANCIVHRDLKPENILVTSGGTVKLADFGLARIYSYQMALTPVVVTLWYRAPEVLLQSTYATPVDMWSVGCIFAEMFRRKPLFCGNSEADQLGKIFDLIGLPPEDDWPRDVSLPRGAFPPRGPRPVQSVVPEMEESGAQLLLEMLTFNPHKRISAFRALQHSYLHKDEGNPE
# Sequence of CDK4/Cyclin D1 (P24385 whole entry partner): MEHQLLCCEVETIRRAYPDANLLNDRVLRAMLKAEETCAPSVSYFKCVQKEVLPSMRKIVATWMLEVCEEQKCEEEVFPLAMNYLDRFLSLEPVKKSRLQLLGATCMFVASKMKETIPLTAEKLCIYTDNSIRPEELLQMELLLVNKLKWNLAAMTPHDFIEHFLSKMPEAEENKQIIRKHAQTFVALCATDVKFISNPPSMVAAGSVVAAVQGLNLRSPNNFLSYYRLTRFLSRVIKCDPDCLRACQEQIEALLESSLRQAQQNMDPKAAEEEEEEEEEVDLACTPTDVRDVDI
# CDK5/CDK5R1 = CDK5/CDK5R1 (Homo sapiens, UniProt Q00535); assay: NanoBRET live-cell target engagement, CDK5-NanoLuc/CDK5R1 in HEK-293; assay type: binding; conditions: CDK5/CDK5R1, 10µM
# Sequence of CDK5/CDK5R1 (Q00535 whole entry): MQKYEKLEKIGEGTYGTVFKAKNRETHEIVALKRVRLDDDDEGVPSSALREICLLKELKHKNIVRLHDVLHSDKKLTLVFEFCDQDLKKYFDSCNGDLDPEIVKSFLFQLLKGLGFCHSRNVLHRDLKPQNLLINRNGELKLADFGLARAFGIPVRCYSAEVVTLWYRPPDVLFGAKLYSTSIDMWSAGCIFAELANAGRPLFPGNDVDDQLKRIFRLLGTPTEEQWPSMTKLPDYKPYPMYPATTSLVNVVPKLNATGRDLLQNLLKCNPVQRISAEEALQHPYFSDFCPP
# Sequence of CDK5/CDK5R1 (Q15078 whole entry partner): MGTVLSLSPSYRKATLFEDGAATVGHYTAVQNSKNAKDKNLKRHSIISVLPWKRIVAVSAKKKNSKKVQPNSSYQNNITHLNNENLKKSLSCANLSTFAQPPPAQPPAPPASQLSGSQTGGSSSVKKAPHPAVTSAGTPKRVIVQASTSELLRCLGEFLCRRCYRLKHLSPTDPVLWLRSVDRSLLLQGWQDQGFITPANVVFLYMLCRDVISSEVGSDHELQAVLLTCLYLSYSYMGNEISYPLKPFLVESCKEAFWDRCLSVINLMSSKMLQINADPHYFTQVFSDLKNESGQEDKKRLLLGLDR
# CDK9/Cyclin K = CDK9/Cyclin K (Homo sapiens, UniProt P50750); assay: NanoBRET live-cell target engagement, NanoLuc-CDK9/Cyclin K in HEK-293; assay type: binding; conditions: CDK9/K, 10µM
# Sequence of CDK9/Cyclin K (P50750 whole entry): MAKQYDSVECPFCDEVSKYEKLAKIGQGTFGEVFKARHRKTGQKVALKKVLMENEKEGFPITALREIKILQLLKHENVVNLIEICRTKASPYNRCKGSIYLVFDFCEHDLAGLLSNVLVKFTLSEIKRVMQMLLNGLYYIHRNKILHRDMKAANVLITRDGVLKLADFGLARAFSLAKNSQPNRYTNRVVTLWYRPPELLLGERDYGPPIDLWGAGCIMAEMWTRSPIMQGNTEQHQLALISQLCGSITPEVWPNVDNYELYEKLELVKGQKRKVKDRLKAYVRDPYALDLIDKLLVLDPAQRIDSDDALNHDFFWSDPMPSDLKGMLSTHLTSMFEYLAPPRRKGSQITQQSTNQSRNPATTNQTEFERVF
# Sequence of CDK9/Cyclin K (O75909 whole entry partner): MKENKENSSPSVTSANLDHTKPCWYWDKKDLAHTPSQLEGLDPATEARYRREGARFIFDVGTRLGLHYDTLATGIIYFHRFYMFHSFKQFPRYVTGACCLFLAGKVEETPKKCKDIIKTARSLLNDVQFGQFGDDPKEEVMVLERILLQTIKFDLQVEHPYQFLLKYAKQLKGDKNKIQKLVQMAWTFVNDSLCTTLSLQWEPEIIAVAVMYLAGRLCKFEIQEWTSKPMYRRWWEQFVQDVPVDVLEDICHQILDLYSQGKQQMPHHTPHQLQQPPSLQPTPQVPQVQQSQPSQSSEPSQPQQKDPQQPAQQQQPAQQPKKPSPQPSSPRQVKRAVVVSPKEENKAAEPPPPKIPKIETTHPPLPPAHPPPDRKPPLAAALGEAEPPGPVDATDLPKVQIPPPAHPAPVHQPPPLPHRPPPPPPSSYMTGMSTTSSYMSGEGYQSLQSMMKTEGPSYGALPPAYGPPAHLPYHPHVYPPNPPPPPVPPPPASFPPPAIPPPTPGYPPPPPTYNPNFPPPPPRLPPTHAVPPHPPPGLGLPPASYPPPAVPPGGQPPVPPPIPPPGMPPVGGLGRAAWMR
# CDK1/Cyclin E1 = CDK1/Cyclin E1 (Homo sapiens, UniProt P06493); assay: NanoBRET live-cell target engagement, CDK1-NanoLuc/Cyclin E1 in HEK-293; assay type: binding; conditions: CDK1/E1, 10µM
# Sequence of CDK1/Cyclin E1 (P06493 whole entry): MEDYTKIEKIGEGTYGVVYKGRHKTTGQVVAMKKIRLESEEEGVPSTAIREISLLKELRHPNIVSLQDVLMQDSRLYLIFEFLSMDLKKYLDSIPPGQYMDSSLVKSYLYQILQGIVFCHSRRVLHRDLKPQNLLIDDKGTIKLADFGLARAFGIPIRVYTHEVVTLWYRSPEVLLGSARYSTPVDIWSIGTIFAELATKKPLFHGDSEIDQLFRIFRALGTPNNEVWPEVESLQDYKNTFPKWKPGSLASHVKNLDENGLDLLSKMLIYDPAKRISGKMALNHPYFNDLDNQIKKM
# Sequence of CDK1/Cyclin E1 (P24864 whole entry partner): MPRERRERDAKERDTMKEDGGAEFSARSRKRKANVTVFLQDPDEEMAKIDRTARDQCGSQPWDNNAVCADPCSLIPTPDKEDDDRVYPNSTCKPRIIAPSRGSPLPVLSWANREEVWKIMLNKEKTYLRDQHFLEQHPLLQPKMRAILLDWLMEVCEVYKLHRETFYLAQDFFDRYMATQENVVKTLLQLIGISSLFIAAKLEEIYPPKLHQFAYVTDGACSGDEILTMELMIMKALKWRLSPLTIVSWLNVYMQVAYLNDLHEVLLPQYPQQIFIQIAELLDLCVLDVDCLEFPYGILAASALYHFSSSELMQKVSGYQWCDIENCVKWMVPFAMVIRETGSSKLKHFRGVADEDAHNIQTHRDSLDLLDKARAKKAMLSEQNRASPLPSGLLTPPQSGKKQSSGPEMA
# CDK15/Cyclin Y = CDK15/Cyclin Y (Homo sapiens, UniProt Q96Q40); assay: NanoBRET live-cell target engagement, NanoLuc-CDK15/Cyclin Y in HEK-293; assay type: binding; conditions: CDK15/Y, 10µM
# CDK6/Cyclin D1 = CDK6/Cyclin D1 (Homo sapiens, UniProt Q00534); assay: NanoBRET live-cell target engagement, NanoLuc-CDK6/Cyclin D1 in HEK-293; assay type: binding; conditions: CDK6/D1, 10µM
# Sequence of CDK6/Cyclin D1 (Q00534 whole entry): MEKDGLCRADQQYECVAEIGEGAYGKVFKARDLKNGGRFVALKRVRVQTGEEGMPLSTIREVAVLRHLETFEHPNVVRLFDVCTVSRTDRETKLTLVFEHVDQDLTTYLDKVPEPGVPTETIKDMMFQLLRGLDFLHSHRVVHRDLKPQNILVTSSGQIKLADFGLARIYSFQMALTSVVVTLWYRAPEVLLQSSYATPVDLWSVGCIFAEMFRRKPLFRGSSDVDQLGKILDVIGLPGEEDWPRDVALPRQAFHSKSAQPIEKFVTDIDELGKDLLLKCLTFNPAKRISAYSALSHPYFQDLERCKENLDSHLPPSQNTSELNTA
# Sequence of CDK6/Cyclin D1 (P24385 whole entry partner): as the sequence (P24385 whole entry partner) above
# CDK19/Cyclin C = CDK19/Cyclin C (Homo sapiens, UniProt Q9BWU1); assay: NanoBRET live-cell target engagement, NanoLuc-CDK19/Cyclin C in HEK-293; conditions: for inhibition at 10 µM: read-out: Inhibition at 10µM (%), CDK19/C
# CDK7 = CDK7 (Homo sapiens, UniProt P50613); assay: NanoBRET live-cell target engagement, NanoLuc-CDK7 in HEK-293; assay type: binding
# CDK14/Cyclin Y = CDK14/Cyclin Y (Homo sapiens, UniProt O94921); assay: NanoBRET live-cell target engagement, CDK14-NanoLuc/Cyclin Y in HEK-293; assay type: binding; conditions: CDK14/Y, 10µM
# Sequence of CDK14/Cyclin Y (O94921 whole entry): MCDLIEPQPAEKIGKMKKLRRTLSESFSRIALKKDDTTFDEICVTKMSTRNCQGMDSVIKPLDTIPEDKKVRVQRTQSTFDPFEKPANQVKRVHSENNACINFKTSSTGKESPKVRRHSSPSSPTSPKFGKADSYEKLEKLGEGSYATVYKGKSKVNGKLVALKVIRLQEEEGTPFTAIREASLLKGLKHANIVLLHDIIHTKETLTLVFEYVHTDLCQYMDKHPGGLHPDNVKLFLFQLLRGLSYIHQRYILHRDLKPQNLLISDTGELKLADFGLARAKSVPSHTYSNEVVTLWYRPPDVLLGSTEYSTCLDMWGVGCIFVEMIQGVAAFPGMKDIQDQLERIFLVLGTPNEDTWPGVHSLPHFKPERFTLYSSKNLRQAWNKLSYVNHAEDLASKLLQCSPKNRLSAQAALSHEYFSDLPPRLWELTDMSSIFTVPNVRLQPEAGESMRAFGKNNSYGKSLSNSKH
# Sequence of CDK14/Cyclin Y (Q8ND76 whole entry partner): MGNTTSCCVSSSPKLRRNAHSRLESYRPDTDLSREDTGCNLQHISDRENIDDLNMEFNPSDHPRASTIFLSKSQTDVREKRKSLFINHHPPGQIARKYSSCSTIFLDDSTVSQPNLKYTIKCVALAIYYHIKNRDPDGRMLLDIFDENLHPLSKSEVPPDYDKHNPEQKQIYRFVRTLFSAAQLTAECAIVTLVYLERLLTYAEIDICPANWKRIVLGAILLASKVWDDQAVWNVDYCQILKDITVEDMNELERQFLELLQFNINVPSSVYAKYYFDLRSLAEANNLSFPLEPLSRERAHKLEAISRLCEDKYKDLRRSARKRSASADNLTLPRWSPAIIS
# CDK11B/Cyclin L2 = CDK11B/Cyclin L2 (Homo sapiens, UniProt P21127); assay: NanoBRET live-cell target engagement, CDK11B-NanoLuc/Cyclin L2 in HEK-293; assay type: binding; conditions: CDK11b/L2; for inhibition at 10 µM: read-out: Inhibition at 10µM (%)
# Sequence of CDK11B/Cyclin L2 (P21127 1-782 isoform P21127-2): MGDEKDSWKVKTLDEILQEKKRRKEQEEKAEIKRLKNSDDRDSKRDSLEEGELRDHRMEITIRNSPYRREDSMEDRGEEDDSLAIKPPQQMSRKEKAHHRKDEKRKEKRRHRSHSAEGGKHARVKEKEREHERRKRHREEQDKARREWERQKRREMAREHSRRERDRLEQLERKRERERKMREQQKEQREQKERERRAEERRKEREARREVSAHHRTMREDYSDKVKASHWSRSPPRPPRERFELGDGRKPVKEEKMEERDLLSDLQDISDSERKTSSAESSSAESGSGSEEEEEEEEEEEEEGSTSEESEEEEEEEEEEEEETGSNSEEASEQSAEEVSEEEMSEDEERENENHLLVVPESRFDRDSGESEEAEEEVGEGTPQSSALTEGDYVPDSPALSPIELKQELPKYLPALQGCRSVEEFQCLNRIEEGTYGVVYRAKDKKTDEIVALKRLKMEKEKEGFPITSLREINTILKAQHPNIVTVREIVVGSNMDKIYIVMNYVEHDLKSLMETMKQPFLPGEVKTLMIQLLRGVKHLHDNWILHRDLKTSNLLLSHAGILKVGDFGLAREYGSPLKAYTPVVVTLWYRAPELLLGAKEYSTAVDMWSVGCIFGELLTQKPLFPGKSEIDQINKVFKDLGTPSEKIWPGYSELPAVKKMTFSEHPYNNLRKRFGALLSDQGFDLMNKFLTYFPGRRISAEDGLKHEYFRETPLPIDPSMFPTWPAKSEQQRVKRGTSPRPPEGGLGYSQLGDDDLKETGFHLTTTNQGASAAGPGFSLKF
# CDK17/Cyclin Y = CDK17/Cyclin Y (Homo sapiens, UniProt Q00537); assay: NanoBRET live-cell target engagement, CDK17-NanoLuc/Cyclin Y in HEK-293; assay type: binding; conditions: CDK17/Y, 10µM
# CDK10/Cyclin L2 [1] = target: T2, CDK10/Cyclin L2 (Homo sapiens, UniProt Q15131); assay: NanoBRET live-cell target engagement, CDK10-NanoLuc/Cyclin L2 in HEK-293; conditions: for IC50: n=1; for inhibition at 10 µM: read-out: Inhibition at 10µM (%), CDK10/L2
# CDK3/Cyclin E1 = CDK3/Cyclin E1 (Homo sapiens, UniProt Q00526); assay: NanoBRET live-cell target engagement, CDK3-NanoLuc/Cyclin E1 in HEK-293; assay type: binding; conditions: CDK3/E1, 10µM
# CDK2/Cyclin E1 = CDK2/Cyclin E1 (Homo sapiens, UniProt P24941); assay: NanoBRET live-cell target engagement, CDK2-NanoLuc/Cyclin E1 in HEK-293; assay type: binding; conditions: CDK2/E1, 10µM
# CDK10/Cyclin L2 [2] = target: T2, CDK10/Cyclin L2; assay: cell-based
structure (smiles),measurement,setting,value
O=C(Nc1c[nH]nc1-c1ccccn1)c1nn(C2CCNCC2)cc1Cl [BDP5290],Inhibition at 10µM (%) Replicate 1,CDK11A/Cyclin L2; 10µM,-5.6%
same,Inhibition at 10µM (%) Replicate 2,CDK11A/Cyclin L2; 10µM,5.6%
same,Inhibition at 10µM (%) Average,"CDK11A/Cyclin L2; 10µM, average of replicates",-0.00201%
same,Inhibition at 10µM (%) Replicate 1,CDK13/Cyclin K,3.0%
same,Inhibition at 10µM (%) Replicate 2,CDK13/Cyclin K,-9.6%
same,Inhibition at 10µM (%) Average,CDK13/Cyclin K; average of replicates,-3.3%
same,Inhibition at 10µM (%) Replicate 1,CDK18/Cyclin Y,16.5%
same,Inhibition at 10µM (%) Replicate 2,CDK18/Cyclin Y,10.0%
same,Inhibition at 10µM (%) Average,CDK18/Cyclin Y; average of replicates,13.2%
same,Inhibition at 10µM (%) Replicate 1,"CDK20/Cyclin H; CDK20/H, 10µM",14.8%
same,Inhibition at 10µM (%) Replicate 2,"CDK20/Cyclin H; CDK20/H, 10µM",26.9%
same,Inhibition at 10µM (%) Replicate 1,CDK16/Cyclin Y,4.2%
same,Inhibition at 10µM (%) Replicate 2,CDK16/Cyclin Y,-9.2%
same,Inhibition at 10µM (%) Replicate 1,CDK12/Cyclin K,6.2%
same,Inhibition at 10µM (%) Replicate 2,CDK12/Cyclin K,-2.0%
same,Inhibition at 10µM (%) Average,CDK12/Cyclin K; average of replicates,2.1%
same,Inhibition at 10µM (%) Replicate 1,CDK8/Cyclin C; 10µM,6.1%
same,Inhibition at 10µM (%) Replicate 2,CDK8/Cyclin C; 10µM,-10.6%
same,Inhibition at 10µM (%) Average,"CDK8/Cyclin C; 10µM, average of replicates",-2.2%
same,engagement of CDKs at concentrations up to 10μM,all 21 human CDKs,only weakly engaged
same,Inhibition at 10µM (%) Replicate 1,CDK4/Cyclin D1,13.2%
same,Inhibition at 10µM (%) Replicate 2,CDK4/Cyclin D1,14.4%
same,Inhibition at 10µM (%) Average,CDK4/Cyclin D1; average of replicates,13.8%
same,Inhibition at 10µM (%) Replicate 1,CDK5/CDK5R1,7.9%
same,Inhibition at 10µM (%) Replicate 2,CDK5/CDK5R1,-3.3%
same,Inhibition at 10µM (%) Average,CDK5/CDK5R1; average of replicates,2.3%
same,Inhibition at 10µM (%) Replicate 1,CDK9/Cyclin K,12.5%
same,Inhibition at 10µM (%) Replicate 2,CDK9/Cyclin K,29.1%
same,Inhibition at 10µM (%) Average,CDK9/Cyclin K; average of replicates,20.8%
same,Inhibition at 10µM (%) Replicate 1,CDK1/Cyclin E1,19.1%
same,Inhibition at 10µM (%) Replicate 2,CDK1/Cyclin E1,12.1%
same,Inhibition at 10µM (%) Average,CDK1/Cyclin E1; average of replicates,15.6%
same,Inhibition at 10µM (%) Replicate 1,CDK15/Cyclin Y,8.0%
same,Inhibition at 10µM (%) Replicate 2,CDK15/Cyclin Y,6.5%
same,Inhibition at 10µM (%) Average,CDK15/Cyclin Y; average of replicates,7.2%
same,Inhibition at 10µM (%) Replicate 1,CDK6/Cyclin D1,5.5%
same,Inhibition at 10µM (%) Replicate 2,CDK6/Cyclin D1,5.4%
same,Inhibition at 10µM (%) Average,CDK6/Cyclin D1; average of replicates,5.5%
same,Inhibition at 10µM (%) Replicate 1,"CDK19/Cyclin C; CDK19/C, 10µM",12.8%
same,Inhibition at 10µM (%) Replicate 2,"CDK19/Cyclin C; CDK19/C, 10µM",-7.7%
same,Inhibition at 10µM (%) Average,"CDK19/Cyclin C; CDK19/C, 10µM, average of replicates",2.6%
same,Inhibition at 10µM (%) Replicate 1,"CDK7; CDK7, 10µM",9.8%
same,Inhibition at 10µM (%) Replicate 2,"CDK7; CDK7, 10µM",16.0%
same,Inhibition at 10µM (%) Average,"CDK7; CDK7, 10µM, average of replicates",12.9%
same,Inhibition at 10µM (%) Replicate 1,CDK14/Cyclin Y,-4.4%
same,Inhibition at 10µM (%) Replicate 2,CDK14/Cyclin Y,-10.4%
same,Inhibition at 10µM (%) Average,CDK14/Cyclin Y; average of replicates,-7.4%
same,Inhibition at 10µM (%) Replicate 1,CDK11B/Cyclin L2; 10µM,8.9%
same,Inhibition at 10µM (%) Replicate 2,CDK11B/Cyclin L2; 10µM,-3.2%
same,Inhibition at 10µM (%) Average,"CDK11B/Cyclin L2; 10µM, average of replicates",2.8%
same,Inhibition at 10µM (%) Replicate 1,CDK17/Cyclin Y,0.247%
same,Inhibition at 10µM (%) Replicate 2,CDK17/Cyclin Y,1.8%
same,Inhibition at 10µM (%) Average,CDK17/Cyclin Y; average of replicates,1.0%
same,Inhibition at 10µM (%) Replicate 1,"CDK10/Cyclin L2 [1]; CDK10/L2, 10µM",1.9%
same,Inhibition at 10µM (%) Replicate 2,"CDK10/Cyclin L2 [1]; CDK10/L2, 10µM",8.8%
same,Inhibition at 10µM (%) Average,"CDK10/Cyclin L2 [1]; CDK10/L2, 10µM, average of replicates",5.4%
same,Inhibition at 10µM (%) Replicate 1,CDK3/Cyclin E1,4.4%
same,Inhibition at 10µM (%) Replicate 2,CDK3/Cyclin E1,3.4%
same,Inhibition at 10µM (%) Average,CDK3/Cyclin E1; average of replicates,3.9%
same,Inhibition at 10µM (%) Replicate 1,CDK2/Cyclin E1,-7.9%
same,Inhibition at 10µM (%) Replicate 2,CDK2/Cyclin E1,7.7%
same,Inhibition at 10µM (%) Average,CDK2/Cyclin E1; average of replicates,-0.109%
CCc1cnn2c(NCc3ccc[n+]([O-])c3)cc(N3CCCC[C@H]3CCO)nc12 [Dinaciclib],inhibition at 10 µM,CDK11A/Cyclin L2; average,33%
same,inhibition at 10 µM,CDK11A/Cyclin L2; experiment 1,36%
same,inhibition at 10 µM,CDK11A/Cyclin L2; experiment 2,29.9%
same,inhibition at 10 µM,CDK20/Cyclin H; experiment 1,71.7%
same,inhibition at 10 µM,CDK20/Cyclin H; experiment 2,78%
same,inhibition at 10 µM,CDK8/Cyclin C; average,24.5%
same,inhibition at 10 µM,CDK8/Cyclin C; experiment 1,40.6%
same,inhibition at 10 µM,CDK8/Cyclin C; experiment 2,8.4%
same,inhibition at 10 µM,CDK19/Cyclin C; average,35.5%
same,inhibition at 10 µM,CDK19/Cyclin C; experiment 1,46.2%
same,inhibition at 10 µM,CDK19/Cyclin C; experiment 2,24.7%
same,inhibition at 10 µM,"CDK7; CDK7, experiment 1, read-out: Inhibition at 10µM (%)",94.8%
same,inhibition at 10 µM,"CDK7; CDK7, experiment 2, read-out: Inhibition at 10µM (%)",91.5%
same,inhibition at 10 µM,"CDK7; read-out: Inhibition at 10µM (%), CDK7, average",93.1%
same,IC50,CDK10/Cyclin L2 [2],720 nM
same,inhibition at 10 µM,CDK11B/Cyclin L2; average,45.5%
same,inhibition at 10 µM,CDK11B/Cyclin L2; experiment 1,46.1%
same,inhibition at 10 µM,CDK11B/Cyclin L2; experiment 2,45%
same,IC50,"CDK10/Cyclin L2 [1]; IC50, [Probe 1] 0.5 µM",850 nM
same,IC50,"CDK10/Cyclin L2 [1]; IC50, [Probe 1] 1 µM",740 nM
same,inhibition at 10 µM,CDK10/Cyclin L2 [1]; average,74.8%
same,inhibition at 10 µM,CDK10/Cyclin L2 [1]; experiment 1,77.5%
same,inhibition at 10 µM,CDK10/Cyclin L2 [1]; experiment 2,72.2%
